Measured values from publication PMC7022278, “Alpha-Amylase and Alpha-Glucosidase Enzyme Inhibition and Antioxidant Potential of 3-Oxolupenal and Katononic Acid Isolated from Nuxia oppositifolia” (Biomolecules, 2019).
Several values for one entry are separate records, joined by “and”; a condition that tells them apart may be missing. Equal values may be shown once.

Tests used:
[1] = ABTS radical cation scavenging activity; details: for ABTS Scavenging Activity (IC50 value): means of three experiments ± SD; for IC50: molar value in brackets
Method: The ABTS radical scavenging activity of the samples was measured using the method of Re et al. (1999) with slight modification. ABTS solution in water (7 mM concentration) and an aqueous solution of potassium persulfate (2.45 mM) were prepared. The two solutions were mixed in the volume ratio 1:1 and stored in the dark 6 h at room temperature to produce the ABTS radical. The blue chromophore, which has a characteristic absorbance at 734 nm, was generated by reacting equal amount of ABTS and potassium persulfate solution. The ABTS stock solution was diluted with ethanol to an absorbance of 0.70 ± 0.02 at 734 nm and equilibrated at 30 °C. The crude extract, different fractions and isolated compounds at 100 µg/mL concentrations were mixed with 2.9 mL of diluted ABTS radical cation solution. The reaction was incubated at 30 °C for 20 min, and the absorbance at 734 nm was measured. The affinity of the test sample to quench the ABTS free radical was evaluated using Equation (1).

[2] = target: T1, Porcine α-amylase (pancreatic α-amylase) (Sus scrofa, UniProt P00690); assay: Inhibition assay for amylase activity (starch/DNS); format: biochemical
T1 construct: purchased Sigma-Aldrich Co., St Louis, MO, USA
T1 sequence (P00690 16-511): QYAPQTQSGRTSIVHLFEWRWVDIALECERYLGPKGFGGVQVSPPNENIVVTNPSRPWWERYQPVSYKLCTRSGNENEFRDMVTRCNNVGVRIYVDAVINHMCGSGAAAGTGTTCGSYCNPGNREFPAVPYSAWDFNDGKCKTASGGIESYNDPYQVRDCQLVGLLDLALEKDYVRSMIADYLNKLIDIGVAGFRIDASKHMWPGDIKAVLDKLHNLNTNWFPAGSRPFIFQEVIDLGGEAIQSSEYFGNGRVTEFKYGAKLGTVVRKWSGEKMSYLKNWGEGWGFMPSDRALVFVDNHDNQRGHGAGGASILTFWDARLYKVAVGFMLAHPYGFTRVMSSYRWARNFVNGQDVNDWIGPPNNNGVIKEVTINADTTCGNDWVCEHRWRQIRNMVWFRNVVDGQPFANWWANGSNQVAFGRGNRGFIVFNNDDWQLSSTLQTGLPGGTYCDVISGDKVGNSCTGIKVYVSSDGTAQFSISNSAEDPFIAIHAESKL
Method: The different fractions of the plant and compounds were prepared using 5% dimethyl sulfoxide (DMSO). Fraction/compound (500 µL) of 100 µg/mL concentration (i.e., 50 µg) and 500 µL of 20 mM sodium phosphate buffer (pH 6.8) containing 20 µL of amylase (0.5 mg/mL) were incubated at 25 °C for 10 min. After pre-incubation, 500 µL of 1% starch solution in 0.02 M sodium phosphate buffer (pH 6.9) were added to each tube and incubated for 15 min. The reaction was stopped with 1.0 mL of dinitrosalicyclic acid. The test tubes were then incubated in a boiling water bath for 5 min and cooled to room temperature. The reaction mixture was then diluted after adding 10 mL distilled water, and the absorbance (Abs) was measured at 540 nm. Mean values were obtained from triplicate experiments. The control samples were prepared without any plant extracts/fractions/compounds. The percent inhibition of amylase activity was calculated using the following formula:(1) Inhibition(%)=(AbsControl−AbsCompound/AbsControl)×100 The mean values were obtained from triplicate experiments.

α-glucosidase [3] = assay: Inhibition assay for glucosidase activity (pNPG); format: biochemical; details: for Inhibition of α-Glucosidase (IC50 value): means of three experiments ± SD; for IC50: molar value in brackets
Method: Glucosidase inhibition assay was carried out by following the method of Elya et al. (2008). The different fractions of the plant and compounds were prepared using 5% dimethyl sulfoxide (DMSO). […] Next, 50 μL of 5 mM p-nitrophenyl-α-D-glucopyranoside (pNPG) were added to the mixture to start the reaction. The reaction mixture was incubated at 37 °C for 60 min and stopped by adding 2.5 mL of 0.1 M Na2CO3. […] The mean values were obtained from triplicate experiments. The inhibition of glucosidase activity was calculated as percentage inhibition using Equation (1).

[4] = DPPH radical scavenging activity; details: for DPPH Scavenging Activity (IC50 value): means of three experiments ± SD; for IC50: molar value in brackets
Method: The DPPH radical scavenging method measured the antioxidant activity following the method of Braca et al. (2001) with slight modification. The crude extract, fractions, and compounds at 100 µg/mL concentrations were added to 3 mL of 0.004% DPPH solution. In the control sample, methanol was added in place of test extract/fractions/compounds. The DPPH is violet in color at room temperature and the color changes to yellow by either the process of hydrogen or electron donation by antioxidants. Absorbance was measured at 520 nm after 30 min incubation. The percent inhibition was calculated using Equation (1).

α-amylase = target: T2, α-amylase (Sus scrofa, UniProt P00690); assay: Fluorescence quenching-based binding study, α-amylase; details: 298 K; for Number of Binding Sites n: pH 6.8
T2 construct: purchased Sigma-Aldrich Co., St Louis, MO, USA
T2 sequence (P00690 16-511): T1 sequence (P00690 16-511)
Method: (§1) Proteins were excited at 295 nm and the fluorescence spectra were recorded in the 300–450 nm range. The excitation and emission slit widths were set at 5 nm each. The concentration of proteins was fixed at 2 µM while the concentration of quenchers was varied. The inner filter effect contributed by quenchers was corrected using the following relation. (2) Fcorr=Fobs×e^(Aex+Aem)/2 where Fcorr is the corrected fluorescence intensity, Fobs is the observed fluorescence intensity, Aex is the absorbance at the excitation wavelength, and Aem is the absorbance at the emission wavelength.
(§2) Observing quenching in the fluorescence intensity of a protein in the presence of a ligand is a powerful tool in determining the binding parameters such as binding affinity and Gibb’s free energy of stabilization. Here, we have followed quenching in the fluorescence intensity of α-amylase and α-glucosidase in the presence of 3-oxolupenal and katononic acid at 298 K (Figure 4 and Figure 5). […] The binding parameters for the interaction were deduced using the following Stern–Volmer and modified Stern–Volmer equations. (3) Fo/F=1+KSV[Q]=1+kqτo[Q] (4) log(Fo−F/F)=logKa+nlog[Q] where, Fo and F are the fluorescence intensities of enzymes (α-amylase and α-glucosidase) in the absence and presence of ligands (3-oxolupenal and katononic acid); KSV is the Stern–Volmer constant; [Q] is the molar concentration of ligands (3-oxolupenal and katononic acid); kq is the bimolecular quenching rate constant; τo is the lifetime of enzymes’ fluorescence in the absence of ligands (=5.71 × 10^−9 s); Ka is the binding constant; n is the number of binding sites on the enzyme.

α-glucosidase [5] = assay: Fluorescence quenching-based binding study, α-glucosidase; details: 298 K
Method: as §1, §2

[6] = means of three experiments ± SD
[7] = pH 6.8, listed as Katononic Acid
[8] = pH 6.8, listed as katononic acid

Row | ABTS Scavenging Activity (IC50 value) [1] | IC50 [1] | DPPH Scavenging Activity (IC50 value) [4] | IC50 [4] | Bimolecular Quenching Rate Constant (kq) (α-glucosidase [5]; [7]) | Stern–Volmer Constant (KSV) (α-glucosidase [5]; [7]) | Bimolecular Quenching Rate Constant (kq) (α-glucosidase [5]; [8]) | Stern–Volmer Constant (KSV) (α-glucosidase [5]; [8]) | Bimolecular Quenching Rate Constant (kq) (α-amylase; [7]) | Stern–Volmer Constant (KSV) (α-amylase; [7]) | Bimolecular Quenching Rate Constant (kq) (α-amylase; [8]) | Stern–Volmer Constant (KSV) (α-amylase; [8]) | Structure (SMILES) | IC50 [2, 6] | IC50 ([2]; molar value in brackets) | Inhibition of α-Glucosidase (IC50 value) (α-glucosidase [3]) | IC50 (α-glucosidase [3]) | Number of Binding Sites n (α-amylase)
1 | 28.0 ± 1.9 µg/mL | 127 µM | 16.6 ± 6.2 µg/mL | 75.3 µM |  |  |  |  |  |  |  |  | Cc1cc(C(C)(C)C)c(O)c(C(C)(C)C)c1 [BHT, butylated hydroxytoluene, reference compound] |  |  |  |  | 
2 | 82.7 ± 4.7 µg/mL | 182 µM | 87.5 ± 5.4 µg/mL | 192 µM | 3.59e+13 M⁻¹ s⁻¹ | 205000 M⁻¹ | ~10^13 M^−1 s^−1 | ~10^5 M^−1 | 2.77e+13 M⁻¹ s⁻¹ | 158000 M⁻¹ | ~10^13 M^−1 s^−1 | ~10^5 M^−1 | CC1(C)C(=O)CC[C@]2(C)[C@H]3CC=C4[C@@H]5C[C@](C)(C(=O)O)CC[C@]5(C)CC[C@@]4(C)[C@]3(C)CC[C@@H]12 [Katononic acid, katononic acid] | 115 µM | 119 µM and 115 µM | 88.6 ± 6.2 µg/mL | 195 µM | 0.7646

Row | Structure (SMILES) | ABTS Scavenging Activity (IC50 value) [1] | IC50 [1] | DPPH Scavenging Activity (IC50 value) [4] | IC50 [4] | Bimolecular Quenching Rate Constant (kq) (α-glucosidase [5]; [7]) | Stern–Volmer Constant (KSV) (α-glucosidase [5]; [7]) | Bimolecular Quenching Rate Constant (kq) (α-glucosidase [5]; [8]) | Stern–Volmer Constant (KSV) (α-glucosidase [5]; [8]) | Bimolecular Quenching Rate Constant (kq) (α-amylase; [7]) | Stern–Volmer Constant (KSV) (α-amylase; [7]) | Bimolecular Quenching Rate Constant (kq) (α-amylase; [8]) | Stern–Volmer Constant (KSV) (α-amylase; [8]) | IC50 [2, 6] | IC50 ([2]; molar value in brackets) | Inhibition of α-Glucosidase (IC50 value) (α-glucosidase [3]) | IC50 (α-glucosidase [3]) | Number of Binding Sites n (α-amylase)
3 | C=C(C=O)[C@@H]1CC[C@]2(C)CC[C@]3(C)[C@H](CC[C@@H]4[C@@]5(C)CCC(=O)C(C)(C)[C@@H]5CC[C@]43C)[C@@H]12 [3-oxolupenal] | 84.2 ± 5.1 µg/mL | 192 µM | 82.7 ± 6.7 µg/mL | 188 µM |  |  |  |  |  |  |  |  | 105 µM | 102 µM and 105 µM | 62.3 ± 2.4 µg/mL | 142 µM | 1.0865
